Here are results for 26 molecules from patent publication US10562898B2, “Substituted benzenesulfonamides as inhibitors of alpha-4 beta-7 integrin activity” (EA PHARMA CO., LTD., priority 2016, dated 2020).

This assay addresses T1, α4β7 integrin (Homo sapiens, UniProt P13612+P26010).
T1 construct: a cell line RPMI-8866, which is known to express α4β7 integrin; endogenous in cells; host or cells: RPMI-8866 (human B cell line)
T1 sequence (P13612 34-1032): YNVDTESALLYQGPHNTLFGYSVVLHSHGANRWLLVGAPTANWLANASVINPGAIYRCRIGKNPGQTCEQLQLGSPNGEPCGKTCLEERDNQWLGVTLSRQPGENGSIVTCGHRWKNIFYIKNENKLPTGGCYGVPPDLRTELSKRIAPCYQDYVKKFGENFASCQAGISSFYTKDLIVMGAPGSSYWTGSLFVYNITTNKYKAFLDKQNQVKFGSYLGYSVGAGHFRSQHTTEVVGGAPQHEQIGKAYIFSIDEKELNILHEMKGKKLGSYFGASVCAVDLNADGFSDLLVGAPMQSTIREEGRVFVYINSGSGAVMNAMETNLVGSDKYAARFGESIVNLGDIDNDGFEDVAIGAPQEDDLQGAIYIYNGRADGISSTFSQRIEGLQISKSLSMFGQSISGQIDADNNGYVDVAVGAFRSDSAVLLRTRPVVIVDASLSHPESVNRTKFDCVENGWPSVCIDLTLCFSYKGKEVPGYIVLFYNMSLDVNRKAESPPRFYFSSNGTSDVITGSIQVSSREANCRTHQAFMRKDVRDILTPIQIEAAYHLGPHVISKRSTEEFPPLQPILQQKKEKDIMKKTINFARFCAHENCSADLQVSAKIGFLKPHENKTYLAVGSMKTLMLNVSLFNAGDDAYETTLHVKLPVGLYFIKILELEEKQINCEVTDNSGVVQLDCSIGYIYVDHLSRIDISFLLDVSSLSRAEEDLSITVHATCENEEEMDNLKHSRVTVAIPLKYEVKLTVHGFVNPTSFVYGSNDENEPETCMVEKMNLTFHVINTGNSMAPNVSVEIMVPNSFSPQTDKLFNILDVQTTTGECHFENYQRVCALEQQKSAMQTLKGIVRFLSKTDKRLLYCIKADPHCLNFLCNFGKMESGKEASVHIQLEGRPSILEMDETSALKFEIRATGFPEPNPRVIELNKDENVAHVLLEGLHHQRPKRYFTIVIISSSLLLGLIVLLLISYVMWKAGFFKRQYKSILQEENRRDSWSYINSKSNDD
T1 sequence (P26010 20-798): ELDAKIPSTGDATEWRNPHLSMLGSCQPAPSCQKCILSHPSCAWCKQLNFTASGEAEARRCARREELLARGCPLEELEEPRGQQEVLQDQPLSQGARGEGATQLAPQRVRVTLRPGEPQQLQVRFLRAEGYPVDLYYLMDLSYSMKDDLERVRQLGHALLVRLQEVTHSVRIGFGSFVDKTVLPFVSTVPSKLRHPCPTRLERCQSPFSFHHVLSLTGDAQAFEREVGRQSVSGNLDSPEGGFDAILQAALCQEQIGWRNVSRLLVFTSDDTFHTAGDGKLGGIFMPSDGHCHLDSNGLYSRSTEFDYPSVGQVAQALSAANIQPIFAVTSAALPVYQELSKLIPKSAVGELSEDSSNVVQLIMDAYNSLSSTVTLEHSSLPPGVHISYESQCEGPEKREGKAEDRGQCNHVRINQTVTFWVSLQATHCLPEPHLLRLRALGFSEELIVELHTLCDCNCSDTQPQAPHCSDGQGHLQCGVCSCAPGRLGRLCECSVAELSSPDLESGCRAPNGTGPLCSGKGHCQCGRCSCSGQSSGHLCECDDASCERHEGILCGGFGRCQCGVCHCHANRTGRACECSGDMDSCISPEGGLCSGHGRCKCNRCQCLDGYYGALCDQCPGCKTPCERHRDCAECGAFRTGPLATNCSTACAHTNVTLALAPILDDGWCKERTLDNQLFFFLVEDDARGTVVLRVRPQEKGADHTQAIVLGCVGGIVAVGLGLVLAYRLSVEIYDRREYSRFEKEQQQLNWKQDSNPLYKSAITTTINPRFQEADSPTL
Kind of assay: MAdCAM-1/α4β7 integrin binding inhibitory activity evaluation test (RPMI-8866 cells binding to MAdCAM-1/Fc). In kind it is cell-based. Conditions: recombinant mouse MAdCAM-1/Fc, no serum. The method, then: (2) MAdCAM-1/α4β7 Integrin Binding Inhibitory Activity Evaluation Test
Each test substance was measured in terms of an ability to inhibit the MAdCAM-1 binding of a human B cell line, namely, a cell line RPMI-8866, which is known to express α4β7 integrin.
A solution of recombinant mouse MAdCAM-1/Fc (R&D Systems, Inc.) (0.75 μg/mL) diluted with a buffer A (carbonate buffer, pH 9.6) was added in an amount of 50 μL/well to a 96-well microtiter plate, followed by incubation at 4° C. overnight. After the plate was washed with PBS once, 150 μL/well of Block Ace (Snow Brand Milk Products Co., Ltd.) was added, followed by incubation at room temperature for 2 hours. After removal, the plate was washed with PBS once.
Then, 100 μL of the RPMI-8866 cells (2×10^6 cells/mL) and 100 μL of the test substance at each of various concentrations diluted with a binding buffer (DMEM containing 40 mM HEPES, 0.2% BSA, and 4 mM MnCl2) were added on the plate coated with the MAdCAM-1/Fc (5×10^5 cells/well), followed by incubation at 30° C. for 15 to 60 minutes. After the cells were bound to the wells, the plate was washed with PBS to remove unbound cells. A buffer C (PBS containing 1.5% Triton X-100) in an amount 50 μL/well was added to the plate to lyse the bound RPMI-8866 cells. After 30 μL of a substrate buffer (Promega, CytoTox 96 Non-Radioactive Cytotoxicity Assay) was added to 30 μL of the cell lysate, a reaction was allowed to proceed at room temperature in the dark for 30 minutes. After 30 μL of a stop solution (Promega, CytoTox 96 Non-Radioactive Cytotoxicity Assay) was added to each, and then an absorbance at 490 nm was measured using a plate reader. The absorbance obtained here represents a detection result of an activity of lactate dehydrogenase (LDH) eluted in the supernatant of each well, that is, the absorbance is proportional to the number of RPMI-8866 cells bound to the MAdCAM-1 and thus remaining on the plate. The test was performed in duplicate. Provided that the absorbance of the well containing no test substance was 100%, a cell binding rate with the test substance at each of the various concentrations was figured out, and a concentration IC50 which brought about 50% binding inhibition was calculated.
The IC50 is the concentration that gives 50% inhibition. In the case of `Cn1c(=O)n(-c2ccc(C[C@H](NC(=O)c3cc(F)c(NS(=O)(=O)c4ccc(NC(=O)c5ccncc5)cc4)cc3F)C(=O)O)cc2)c(=O)c2ccncc21` [Compound A7], the IC50 was 0.36 nM.

For the molecule `Cn1c(=O)n(-c2ccc(C[C@H](NC(=O)c3cc(F)c(NS(=O)(=O)c4ccc(NC(=O)C5CCOCC5)cc4)cc3F)C(=O)O)cc2)c(=O)c2ccncc21` [Compound A14], the IC50 was determined as 0.38 nM.

Regarding `Cc1cn(C)c(=O)n(-c2ccc(C[C@H](NC(=O)c3cc(F)c(NS(=O)(=O)c4ccc(NC(=O)C(C)(C)CO)cc4)cc3F)C(=O)O)cn2)c1=O` [Compound A63], the IC50 is 2.4 nM.

`Cc1c(C)n(C(C)C)c(=O)n(-c2ccc(C[C@H](NC(=O)c3cc(F)c(NS(=O)(=O)c4ccc(NC(=O)C(C)(C)C)cc4)cc3F)C(=O)O)cc2)c1=O` [Compound A48]: the IC50 turned out to be 2 nM.

For `Cc1c(C)n(C)c(=O)n(-c2ccc(C[C@H](NC(=O)c3cc(F)c(NS(=O)(=O)c4ccc(NC(=O)C(C)(C)C)cc4)cc3F)C(=O)O)cn2)c1=O` [Compound A28], the IC50 came out at 0.56 nM.

For `Cn1ccc(=O)n(-c2ccc(C[C@H](NC(=O)c3cc(F)c(NS(=O)(=O)c4ccc(NC(=O)C(C)(C)C)cc4)cc3F)C(=O)O)cc2)c1=O` [Compound A42], the IC50 was 0.77 nM.

For `Cc1cn(C)c(=O)n(-c2ccc(C[C@H](NC(=O)c3cc(F)c(NS(=O)(=O)c4ccc(NC(=O)C(C)C)cc4)cc3F)C(=O)O)cn2)c1=O` [Compound A71], the IC50 was determined as 3.2 nM.

Regarding `Cc1c(C)n(C)c(=O)n(-c2ccc(C[C@H](NC(=O)c3cc(F)c(NS(=O)(=O)c4ccc(NC(=O)C5(c6ccccc6)CC5)cc4)cc3F)C(=O)O)cc2)c1=O` [Compound A30], the IC50 turned out to be 0.57 nM.

Take `Cc1cn(C)c(=O)n(-c2ccc(C[C@H](NC(=O)c3cc(F)c(NS(=O)(=O)c4ccc(NC(=O)C5(C#N)CC5)cc4)cc3F)C(=O)O)cn2)c1=O` [Compound A60]: the IC50 came out at 2.3 nM.

With `Cc1cn(C)c(=O)n(-c2ccc(C[C@H](NC(=O)c3cc(F)c(NS(=O)(=O)c4ccc(NC(=O)C(C)(C)C)cc4)cc3F)C(=O)O)cc2)c1=O` [Compound A37], the IC50 amounted to 1.1 nM.

`Cn1c(=O)n(-c2ccc(C[C@H](NC(=O)c3cc(F)c(NS(=O)(=O)c4ccc(NC(=O)C5(O)CC5)cc4)cc3F)C(=O)O)cc2)c(=O)c2ccncc21` [Compound A23]: the IC50 was 1 nM.

Consider `Cn1c(C(F)(F)F)cc(=O)n(-c2ccc(C[C@H](NC(=O)c3cc(F)c(NS(=O)(=O)c4ccc(NC(=O)C(C)(C)C)cc4)cc3F)C(=O)O)cn2)c1=O` [Compound A66], for which the IC50 came out at 3.3 nM.

Turning to `Cn1c(=O)n(-c2ccc(C[C@H](NC(=O)c3cc(F)c(NS(=O)(=O)c4ccc(NC(=O)C5(c6ccccc6)CC5)cc4)cc3F)C(=O)O)cn2)c(=O)c2ccncc21` [Compound A29], the IC50 came out at 0.95 nM.

In the case of `COC1(C(=O)Nc2ccc(S(=O)(=O)Nc3cc(F)c(C(=O)N[C@@H](Cc4ccc(-n5c(=O)c(C)c(C)n(C)c5=O)cc4)C(=O)O)cc3F)cc2)CC1` [Compound A17], the concentration for half-maximal inhibition (IC50) stood at 0.55 nM.

`COc1cc2c(=O)n(-c3ccc(C[C@H](NC(=O)c4cc(F)c(NS(=O)(=O)c5ccc(NC(=O)C(C)(C)C)cc5)cc4F)C(=O)O)cc3)c(=O)n(C)c2cn1` [Compound A36]: the IC50 was determined as 0.94 nM.

Regarding `Cc1c(C)n(C)c(=O)n(-c2ccc(C[C@H](NC(=O)c3cc(F)c(NS(=O)(=O)c4ccc(NC(=O)C5(C(F)(F)F)CC5)cc4)cc3F)C(=O)O)cc2)c1=O` [Compound A20], the IC50 came to 0.25 nM.

Consider `Cc1c(C)n(C)c(=O)n(-c2ccc(C[C@H](NC(=O)c3cc(F)c(NS(=O)(=O)c4ccc(NC(=O)C5(O)CC5)cc4)cc3F)C(=O)O)cc2)c1=O` [Compound A22], for which the IC50 came out at 0.98 nM.

Take `Cc1c(C)n(C)c(=O)n(-c2ccc(C[C@H](NC(=O)c3cc(F)c(NS(=O)(=O)c4ccc(NC(=O)C(C)(C)CO)cc4)cc3F)C(=O)O)cc2)c1=O` [Compound A21]: the IC50 was 0.34 nM.

As for `Cc1cn(C)c(=O)n(-c2ccc(C[C@H](NC(=O)c3cc(F)c(NS(=O)(=O)c4ccc(NC(=O)C5(C(F)(F)F)CC5)cc4)cc3F)C(=O)O)cn2)c1=O` [Compound A56], the IC50 was determined as 1.2 nM.

With `Cn1c(=O)n(-c2ccc(C[C@H](NC(=O)c3cc(F)c(NS(=O)(=O)c4ccc(NC(=O)C5CCNCC5)cc4)cc3F)C(=O)O)cc2)c(=O)c2ccncc21` [Compound A6, (2S)-2-[[2,5-difluoro-4-[[4-(piperidine-4-carbonylamino)phenyl]sulfonylamino]benzoyl]amino]-3-[4-(1-methyl-2,4-dioxo-pyrido[3,4-d]pyrimidin-3-yl)phenyl]propanoic acid], the IC50 was found to be 2.4 nM.

For the molecule `CCC(CC)C(=O)Nc1ccc(S(=O)(=O)Nc2cc(F)c(C(=O)N[C@@H](Cc3ccc(-n4c(=O)c5ccncc5n(C)c4=O)cc3)C(=O)O)cc2F)cc1` [Compound A3], the IC50 was 0.72 nM.

Turning to `Cc1cn(C)c(=O)n(-c2ccc(C[C@H](NC(=O)c3cc(F)c(NS(=O)(=O)c4cc5cc(NC(=O)C(C)(C)C)ccc5[nH]4)cc3F)C(=O)O)cn2)c1=O` [Compound A76], the IC50 was 2 nM.

As to `Cn1cnc2c1c(=O)n(-c1ccc(C[C@H](NC(=O)c3cc(F)c(NS(=O)(=O)c4ccc(NC(=O)C(C)(C)C)cc4)cc3F)C(=O)O)cc1)c(=O)n2C` [Compound A43], the IC50 is 0.42 nM.

As to `Cc1c(C)n(C)c(=O)n(-c2ccc(C[C@H](NC(=O)c3cc(F)c(NS(=O)(=O)c4cc(NC(=O)C(C)(C)C)cs4)cc3F)C(=O)O)cc2)c1=O` [Compound A11], the IC50 is 2 nM.

`Cn1ccc(=O)n(-c2ccc(C[C@H](NC(=O)c3cc(F)c(NS(=O)(=O)c4ccc(NC(=O)C(C)(C)CO)cc4)cc3F)C(=O)O)cn2)c1=O` [Compound A62]: the IC50 stood at 4.9 nM.

For the molecule `CCC(CC)C(=O)Nc1ccc(S(=O)(=O)Nc2cc(F)c(C(=O)N[C@@H](Cc3ccc(-n4c(=O)c(C)c(C)n(C)c4=O)cc3)C(=O)O)cc2F)cc1` [Compound A4], the IC50 came to 0.85 nM.
